Earlier results, collected in paper PMC6225165, “Design and Synthesis of Novel Dehydroepiandrosterone Analogues as Potent Antiproliferative Agents” (Molecules : A Journal of Synthetic Chemistry and Natural …, 2018).

Assays:
Settings in all cases: literature lead, Figure 1; cited from earlier work
[1] = system: A549
[2] = system: KB; parameters: method as in PMID 23635011
[3] = system: AGS
[4] = system: HCT116; parameters: method as in PMID 26854375

In the case of COc1ccccc1-n1cc(COC(=O)C23CCC(C)C(C)C2C2=CCC4C5(C)CCC(=O)C(C)(C)C5CCC4(C)C2(C)CC3)nn1 (stereo not shown) [Compound A], the IC50 [1] is listed as under 100 nM.
In the case of C[C@]12CC[C@H](O)CC1=CCC1C2CC[C@]2(C)C(=O)/C(=C/c3cccc(Cl)c3)CC12 (stereo partly shown) [Compound D], the IC50 [2] is listed as 600 nM.
For O=c1ccc2cc3ccoc3c(OCc3cn(-c4ccc(C(F)(F)F)cc4)nn3)c2o1 [Compound B], the IC50 [3] is given as 7500 nM.
For CC1CCC2(C(=O)O)CCC3(C)C(=CCC4C5(C)CC(=Cc6cc(O)ccc6O)C(=O)C(C)(C)C5CCC43C)C2C1C (stereo not shown) [Compound C], the IC50 [4] is given as under 100 nM.
